Reference: ChEMBL document CHEMBL3885861, “Open TG-GATES”

Organism: Rattus norvegicus
Test: Open TG-GATES - Regimen: Single
Assay type: toxicity, organism-based, Sprague-Dawley
Set-up: regimen Single, gender Male, age 6 weeks
Details: in vivo, po, 0 mg/kg, route gavage, dose level Control; for APTT / Bas / Eos / Fbg / Hb / Ht / Lym / MCH / MCHC / MCV / Mono / Neu / PT / Plat / RBC / Ret / WBC: tissue Blood; for KIDNEY_L / KIDNEY_R / KIDNEY_TOTAL: tissue Kidney; for LIVER: tissue Liver; for A/G / ALP / ALT / AST / BUN / CRE / Ca / Cl / DBIL / GLC / IP / K / LDH / Na / PL / RALB / TBIL / TC / TG / TP / gamma-GTP: tissue Plasma

Molecule O=NN(CCCl)C(=O)NC1CCCCC1 [LOMUSTINE] has a TERMINAL_BW (3 h) of 205.6 g, an APTT (3 h) of 16.5 s and a Bas (3 h) of 0%. It also gave an Eos (3 h) of 0.6%, a Fbg (3 h) of 207.8 mg/dL and a Hb (3 h) of 13 g/dL. The Ht (3 h) was 39.5%, the Lym (3 h) was 82% and the MCH (3 h) was 21.7 pg. For the same molecule, the MCHC (3 h) was 32.9%, the MCV (3 h) was 66 fL and the Mono (3 h) was 6.4%. The Neu (3 h) was 11.2%, the PT (3 h) was 11 s and the Plat (3 h) was 100.4 x10_4/uL. The RBC (3 h) was 599.2 x10_4/ul, the Ret (3 h) was 8.5% and the WBC (3 h) was 134.2 x10_2/uL. It also gave a KIDNEY_L (3 h) of 0.9 g, a KIDNEY_R (3 h) of 0.9 g and a KIDNEY_TOTAL (3 h) of 1.9 g. The LIVER (3 h) was 10 g, the A/G (3 h) was 2 and the ALP (3 h) was 881.4 IU/L. The ALT (3 h) was 36.4 IU/L, the AST (3 h) was 66.4 IU/L and the BUN (3 h) was 14.6 mg/dL. For the same molecule, the CRE (3 h) was 0.6 mg/dL, the Ca (3 h) was 11.3 mg/dL and the Cl (3 h) was 106.4 meq/L. It also gave a DBIL (3 h) of 0.072 mg/dL, a GLC (3 h) of 187 mg/dL and an IP (3 h) of 9.5 mg/dL. For the same molecule, the K (3 h) was 5 meq/L, the LDH (3 h) was 89.6 IU/L and the Na (3 h) was 139.8 meq/L. It also gave a PL (3 h) of 134.4 mg/dL, an RALB (3 h) of 3.7 g/dL and a TBIL (3 h) of 0.3 mg/dL. For the same molecule, the TC (3 h) was 76.4 mg/dL, the TG (3 h) was 50.2 mg/dL and the TP (3 h) was 5.6 g/dL. For the same molecule, the gamma-GTP (3 h) was 1.4 IU/L, the TERMINAL_BW (6 h) was 200.9 g and the APTT (6 h) was 17.4 s. For the same molecule, the Bas (6 h) was 0%, the Eos (6 h) was 0.6% and the Fbg (6 h) was 218.2 mg/dL. For the same molecule, the Hb (6 h) was 13.6 g/dL, the Ht (6 h) was 41.3% and the Lym (6 h) was 72%. It also gave an MCH (6 h) of 22 pg, an MCHC (6 h) of 32.9% and an MCV (6 h) of 66.7 fL. The Mono (6 h) was 6.6%, the Neu (6 h) was 20.6% and the PT (6 h) was 12.2 s. For the same molecule, the Plat (6 h) was 106.2 x10_4/uL, the RBC (6 h) was 619.2 x10_4/ul and the Ret (6 h) was 8.9%. For the same molecule, the WBC (6 h) was 71.6 x10_2/uL, the KIDNEY_L (6 h) was 1 g and the KIDNEY_R (6 h) was 1 g. For the same molecule, the KIDNEY_TOTAL (6 h) was 2 g, the LIVER (6 h) was 9.4 g and the A/G (6 h) was 2. It also gave an ALP (6 h) of 849.6 IU/L, an ALT (6 h) of 28.2 IU/L and an AST (6 h) of 66 IU/L. For the same molecule, the BUN (6 h) was 10.2 mg/dL, the CRE (6 h) was 0.5 mg/dL and the Ca (6 h) was 11.1 mg/dL. For the same molecule, the Cl (6 h) was 103.4 meq/L, the DBIL (6 h) was 0.01 mg/dL and the GLC (6 h) was 189.6 mg/dL. For the same molecule, the IP (6 h) was 11.2 mg/dL, the K (6 h) was 5.6 meq/L and the LDH (6 h) was 116.4 IU/L. The Na (6 h) was 141.2 meq/L, the PL (6 h) was 141.6 mg/dL and the RALB (6 h) was 3.7 g/dL. For the same molecule, the TBIL (6 h) was 0.3 mg/dL, the TC (6 h) was 78.8 mg/dL and the TG (6 h) was 50.6 mg/dL. It also gave a TP (6 h) of 5.7 g/dL, a gamma-GTP (6 h) of 1 IU/L and a TERMINAL_BW (9 h) of 199.9 g. It also gave an APTT (9 h) of 16.9 s, a Bas (9 h) of 0% and an Eos (9 h) of 0.8%. The Fbg (9 h) was 213.2 mg/dL, the Hb (9 h) was 13.1 g/dL and the Ht (9 h) was 40.2%. It also gave a Lym (9 h) of 79.4%, an MCH (9 h) of 21.7 pg and an MCHC (9 h) of 32.6%. The MCV (9 h) was 66.4 fL, the Mono (9 h) was 6.2% and the Neu (9 h) was 14%. It also gave a PT (9 h) of 12.5 s, a Plat (9 h) of 107.9 x10_4/uL and an RBC (9 h) of 606.2 x10_4/ul. It also gave a Ret (9 h) of 8.8%, a WBC (9 h) of 91.5 x10_2/uL and a KIDNEY_L (9 h) of 0.9 g. It also gave a KIDNEY_R (9 h) of 0.9 g, a KIDNEY_TOTAL (9 h) of 1.8 g and an LIVER (9 h) of 8.5 g. The A/G (9 h) was 2.4, the ALP (9 h) was 985 IU/L and the ALT (9 h) was 28 IU/L. For the same molecule, the AST (9 h) was 55.8 IU/L, the BUN (9 h) was 10.8 mg/dL and the CRE (9 h) was 0.5 mg/dL. For the same molecule, the Ca (9 h) was 10.8 mg/dL, the Cl (9 h) was 105.6 meq/L and the DBIL (9 h) was 0.072 mg/dL. The GLC (9 h) was 193.6 mg/dL, the IP (9 h) was 11 mg/dL and the K (9 h) was 4.8 meq/L. For the same molecule, the LDH (9 h) was 101 IU/L, the Na (9 h) was 139 meq/L and the PL (9 h) was 120.8 mg/dL. For the same molecule, the RALB (9 h) was 3.9 g/dL, the TBIL (9 h) was 0.3 mg/dL and the TC (9 h) was 67.2 mg/dL. It also gave a TG (9 h) of 43.2 mg/dL, a TP (9 h) of 5.6 g/dL and a gamma-GTP (9 h) of 1.4 IU/L. It also gave a TERMINAL_BW (24 h) of 218.2 g, an APTT (24 h) of 16 s and a Bas (24 h) of 0%. For the same molecule, the Eos (24 h) was 0.4%, the Fbg (24 h) was 225 mg/dL and the Hb (24 h) was 13 g/dL. For the same molecule, the Ht (24 h) was 38.8%, the Lym (24 h) was 80.4% and the MCH (24 h) was 22.5 pg. For the same molecule, the MCHC (24 h) was 33.5%, the MCV (24 h) was 67.2 fL and the Mono (24 h) was 6.4%. The Neu (24 h) was 12.4%, the PT (24 h) was 11.9 s and the Plat (24 h) was 100.3 x10_4/uL. It also gave an RBC (24 h) of 578.2 x10_4/ul, a Ret (24 h) of 8.8% and a WBC (24 h) of 130.7 x10_2/uL. The KIDNEY_L (24 h) was 1 g, the KIDNEY_R (24 h) was 1 g and the KIDNEY_TOTAL (24 h) was 2 g. The LIVER (24 h) was 11.5 g, the A/G (24 h) was 2.1 and the ALP (24 h) was 991.8 IU/L. The ALT (24 h) was 35 IU/L, the AST (24 h) was 63.6 IU/L and the BUN (24 h) was 19.2 mg/dL. For the same molecule, the CRE (24 h) was 0.5 mg/dL, the Ca (24 h) was 11.3 mg/dL and the Cl (24 h) was 104.8 meq/L. It also gave a DBIL (24 h) of 0.018 mg/dL, a GLC (24 h) of 203.8 mg/dL and an IP (24 h) of 8.4 mg/dL. It also gave a K (24 h) of 5.4 meq/L, an LDH (24 h) of 130.2 IU/L and a Na (24 h) of 138.2 meq/L. The PL (24 h) was 146.6 mg/dL, the RALB (24 h) was 3.9 g/dL and the TBIL (24 h) was 0.4 mg/dL. The TC (24 h) was 79.8 mg/dL, the TG (24 h) was 96.6 mg/dL and the TP (24 h) was 5.8 g/dL. It also gave a gamma-GTP (24 h) of 1.4 IU/L.
